Laboratory results taken from patent publication US20080044474A1, “Dispersions of nanoureas comprising biologically active compounds” (Bayer MaterialScience AG, priority 2006, published 2008).

Assays:
Format in all cases: cell-based
[1] = system: Staphylococcus epidermidis (ATC 14990); experiment: Agar plate inhibition halo test according to Example 5, overnight culture
Description: Cells of Staphylococcus epidermidis 498 and Bacillus subtilis 168 are plated out on agar plates such that, after incubation overnight at 37° C., they have formed a visible cell lawn on the agar. […] A hole was in each case punched in the centre of the plates. […] After incubation overnight, the agar was examined for diffusing antibiotic active compounds in that the missing cell lawn around the punched-out hole can be seen (“inhibition halos”). These inhibition halos were compared with an agar plate without further additives and an agar plate with an active compound-free nanourea dispersion. A test according to Example 5 was carried out in an overnight culture of Staphylococcus epidermidis (ATC 14990). The underlying active compound-loaded dispersions F to K were in turn prepared analogously to Example 2. As comparisons L to O, aqueous solutions having various concentrations of ciprofloxacin (Cipro) were additionally tested.

Bacillus subtilis 168 = experiment: Agar plate inhibition halo test of active compound-loaded nanourea dispersions; details: 100 μl dialysed active compound-loaded nanourea dispersion of Example 2 (about 3% active compound on solids), incubation overnight, Müller-Hinton agar
Description: (§1) Cells of Staphylococcus epidermidis 498 and Bacillus subtilis 168 are plated out on agar plates such that, after incubation overnight at 37° C., they have formed a visible cell lawn on the agar. The agar contained a complex nutrient-rich medium (Müller-Hinton medium, OD600=0.1 set; 200 μl plated out per plate, dried at room temperature for one hour). A hole was in each case punched in the centre of the plates.

[2] = system: Staphylococcus epidermidis 498; experiment: as above; details: 100 μl dialysed active compound-loaded nanourea dispersion of Example 2 (about 3% active compound on solids), incubation overnight, Müller-Hinton agar
Description: as §1

[3] = active compound-loaded nanourea dispersion prepared analogously to Example 2

## O=C(O)c1cn(C2CC2)c2cc(N3CCNCC3)c(F)cc2c1=O [Cipro, Ciprofloxacin]
[1]; aqueous solution, 0.001 mM (comparison O)
  Inhibition halo: 11 mm
[1]; aqueous solution, 0.01 mM (comparison N)
  Inhibition halo: 26 mm
[1]; aqueous solution, 0.1 mM (comparison M)
  Inhibition halo: 36 mm
[1]; aqueous solution, 1 mM (comparison L)
  Inhibition halo: 43 mm

## COCN(COC)c1nc(N(COC)COC)nc(N(COC)COC)n1 [Hexamethoxymethylmelamine]
[1]; [3]
  Inhibition halo: 13 mm

## O=[N+]([O-])[O-].[Ag+] [Silver nitrate]
Bacillus subtilis 168
  Inhibition halo (diameter minus the diameter of the punched-out hole): 300 μm
[2]
  Inhibition halo (diameter minus the diameter of the punched-out hole): 400 μm

## CC(=O)Oc1ccccc1C(=O)O [Acetylsalicylic acid]
[1]; [3]
  Inhibition halo: 13 mm

## Potassium iodide-iodine complex
[1]; [3]
  Inhibition halo: 14 mm

## O=C(O)c1ccccc1O [Salicylic acid]
[1]; [3]
  Inhibition halo: 38 mm

## C=O [Formaldehyde]
[1]; [3]
  Inhibition halo: 21 mm
